Molecules are shown by their SMILES.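 1) Cells in 96-well plates. 2) Compound, 48 h, 5 concentrations. 3) Linear interpolation between surrounding doses. 4) Unreached endpoint = highest concentration. Abbreviation: GI50, concentration required for 50% inhibition of growth.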 Activity calls are given as the source filed them. No stated cut-off is given here; in the data, active = GI50 up to about 1.1 µM and inactive = higher.

Test systems include BT-549; DLD-1; DMS-273; HOP-18; KM-20L2; LXFL 529; RXF 631; SNB-78; XF498.
Common to all, as to assay: growth of human tumour cells (NCI), 48 h

Take `COc1ccc2c(c1)N=C1CSC(c3cc([N+](=O)[O-])ccc3Cl)N1C2` (stereo not drawn): the GI50 with BT-549 was 26.2 µM (inactive).

On to `CCNC1=C(NC(=O)c2ccccc2)C(=O)c2ccccc2C1=O`, for which the GI50 in the assay with BT-549 was 90.4 µM (inactive).

For the compound `Cc1cc(N2CCCCC2)nc2ccc(Cc3ccc4nc(N5CCCCC5)cc(C)c4c3)cc12`, in the assay with BT-549, the GI50 is > 100 µM (inactive).

In the case of `COC(=O)C(Br)C1CCc2ccccc21` (stereo not drawn), the GI50 was > 100 µM (inactive) with DLD-1; > 100 µM (inactive) with DMS-273; 65.3 µM (inactive) in the assay with HOP-18; > 100 µM (inactive) in the assay on KM-20L2; > 100 µM (inactive) in the assay with LXFL 529; > 100 µM (inactive) in the assay on RXF 631.

As for `Cc1ccc(N)c(S)c1`, in the assay on BT-549, the GI50 was 18.6 µM (inactive).

Regarding `CCOC1c2cc(C(C)C)c(O)c(O)c2[C@@]23CCCC(C)(C)C2C1OC3=O` (stereo partly drawn), the GI50 in the assay with DLD-1 is 61.7 µM (inactive); with DMS-273 it was > 100 µM (inactive); in the assay with KM-20L2, > 100 µM (inactive); with LXFL 529 it was > 100 µM (inactive); in the assay with SNB-78 it was > 100 µM (inactive).

In the case of `Cc1nnc2c3nnc(C)n3c3ccccc3n12`, the GI50 in the assay with DLD-1, in the assay on DMS-273, in the assay with KM-20L2, in the assay on LXFL 529, in the assay with SNB-78 and in the assay with XF498 was > 100 µM (inactive) each time.

Take `N#CCCN(c1ccc(/C=N/c2ccc(C(=O)O)cc2)cc1)S(=O)(=O)c1ccccc1`: the GI50 in the assay with DLD-1, in the assay on DMS-273, in the assay on HOP-18, with KM-20L2, in the assay on LXFL 529 and in the assay with SNB-78 was > 100 µM (inactive) throughout. Also, in the assay on XF498, the GI50 is > 100 µM (inactive).

For the compound `NC(=O)NCCCC(NC(=O)OCCCCCn1ccc(=O)[nH]c1=O)C(=O)O` (stereo not drawn), the GI50 in the assay with BT-549 was > 100 µM (inactive).

`O=C1c2ccccc2C(=O)N1c1nc(-c2ccc(Cl)cc2)cc(N2N=C(c3ccc(Br)cc3)CC2c2ccccc2)n1` (stereo not drawn): the GI50 in the assay with BT-549 is 3.21 µM (inactive).

Turning to `CC(C)(C)OC(=O)NC(Cc1ccc(OCc2ccccc2)cn1)C(=O)N1CCCCC1` (stereo not drawn), in the assay with BT-549, the GI50 is 24.5 µM (inactive).

In the case of `CCCCCCCC/C=C/CCCCCCCC1CC(O)C(=O)O1` (stereo not drawn), in the assay with BT-549, the GI50 was 28.9 µM (inactive).

Regarding `COP(=O)(OC)C(C)(C)NC(=O)NC(F)(F)F`, in the assay on BT-549, the GI50 was > 100 µM (inactive).

Take `Cc1cccc(Br)[n+]1[O-]`: in the assay on BT-549, the GI50 is > 100 µM (inactive).

For the compound `COC(=O)c1ccccc1C1CN=NC12Cc1ccc3ccccc3c1C2=O` (stereo not drawn), the GI50 with BT-549 was > 100 µM (inactive).

As to `CCCP1(=O)C=C(C)C(=C(Cl)Cl)C(C)=C1` (stereo not drawn), the GI50 in the assay with DLD-1 is 67.3 µM (inactive); with HOP-18, > 100 µM (inactive); in the assay on KM-20L2, 18.3 µM (inactive); in the assay with LXFL 529, 30.1 µM (inactive); with SNB-78, 57.3 µM (inactive).

In the case of `O=c1c2c(sc3ccccc13)NCN(CCc1ccccc1)C2`, the GI50 with BT-549 was 23.1 µM (inactive).

Consider `O=C(NCCCCNCCCNC(=O)c1cc(-c2ccccc2)nc2ccccc12)c1cc(-c2ccccc2)nc2ccccc12`, for which the GI50 with BT-549 was 9.66 µM (inactive).

For the compound `Cc1cc(N2CCN(C)CC2)n2nc(-c3ccc(Cl)cc3)nc2n1`, the GI50 in the assay with BT-549 was 99.1 µM (inactive).

In the case of `CN1CC[C@@H](c2c(O)cc(O)c3c(=O)cc(-c4ccccc4Cl)oc23)[C@@H](O)C1`, the GI50 in the assay with BT-549 was 0.0395 µM (active); in the assay with DLD-1, 0.0528 µM (active); with DMS-273, 0.109 µM (active); in the assay on HOP-18, 0.0562 µM (active); in the assay with KM-20L2, 0.174 µM (active); in the assay on LXFL 529 it was 0.124 µM (active). For the same compound, the GI50 was 0.213 µM (active) with SNB-78 and 0.149 µM (active) in the assay on XF498.

For the compound `O=C(/C=C/c1ccc2c(c1)OCO2)NCc1ccco1`, the GI50 in the assay on BT-549 was 25.9 µM (inactive).

Regarding `Cc1ccn2c(CCc3nnc4cc(C)ccn34)nnc2c1`, the GI50 in the assay with BT-549 was > 100 µM (inactive).

For the compound `C=C(C)C1CC2(C)C(C)CC(O)CC2C(OC(=O)C=C(C)C)C1O` (stereo not drawn), the GI50 in the assay on BT-549 is 42.4 µM (inactive).

For `FC(F)(F)C1(c2ccccc2)SCc2nc3ccccc3n21` (stereo not drawn), the GI50 in the assay with BT-549 is > 100 µM (inactive).

Regarding `Cc1c(Cl)ccc2c(=O)c3cccc(CC(=O)O)c3oc12`, in the assay on BT-549, the GI50 is 38.5 µM (inactive).

With `Cc1cccc2c1CC(C1OC(=O)c3ccccc31)C2=O` (stereo not drawn), the GI50 in the assay with BT-549 is > 100 µM (inactive).

As to `COc1ccc(C(=O)CC(c2ccc(OC)c(OC)c2)c2c(O)oc3ccccc3c2=O)cc1OC` (stereo not drawn), the GI50 in the assay with BT-549 is > 100 µM (inactive).

`Clc1ccc(OCc2nnc3n2N=C(c2ccccc2)CS3)c(Cl)c1`: the GI50 is 7.26 µM (inactive) in the assay with DLD-1; 5.56 µM (inactive) in the assay on DMS-273; 5.6 µM (inactive) in the assay with LXFL 529; 9.42 µM (inactive) in the assay with SNB-78; > 100 µM (inactive) with XF498.

On to `CCOC(=O)COc1ccc(OCC(=O)OCC)c2c1C(=O)CCCC2=O`, for which the GI50 in the assay with DLD-1, in the assay on DMS-273, in the assay with HOP-18, with KM-20L2, in the assay with LXFL 529 and in the assay on XF498 was > 100 µM (inactive) each time.

As to `CC1NCCC(CC(=O)O)C1CC(=O)O` (stereo not drawn), the GI50 in the assay on BT-549 is > 100 µM (inactive).

For the compound `CCN(CC)CCn1c(=O)c2ccccc2n2c3c(=O)n(C)c(=O)n(C)c3nc12`, in the assay on BT-549, the GI50 is 1.19 µM (inactive).

For the compound `O=C1CC2(CCNCC2)C(=O)N1N1CCCC1`, the GI50 in the assay on BT-549 is > 100 µM (inactive).

For the compound `CN(C)CCCNc1ccc2nnn3c4ccc(OC(=O)c5ccccc5)cc4c(=O)c1c23`, the GI50 in the assay with BT-549 was 16.8 µM (inactive).

Consider `C/C=C\C(C)=C/C(C)C(=O)CC(O)CC1CC(=O)NC(=O)C1` (stereo not drawn), for which the GI50 in the assay with BT-549 was 34.2 µM (inactive).

As for `CC1=C(C)C2(C#N)C(=O)N3C(=NC(c4ccccc4)NC3c3ccccc3)C2(C#N)C(c2ccccc2)N1` (stereo not drawn), the GI50 in the assay on BT-549 was > 100 µM (inactive).

`O=C(O)c1nc2ccc(C(F)(F)F)cc2nc1NCc1ccc(F)cc1`: the GI50 in the assay with BT-549 was 25.9 µM (inactive).

For `Cc1n[nH]c(=O)n1/N=C/c1ccco1`, the GI50 in the assay on BT-549 was > 100 µM (inactive).

Consider `C1=C\CCCCN2C[C@H]3CCCC/C=C\CCCCN4CC[C@@H]([C@H](CCCCCC/1)C4)[C@H](C3)C2`, for which, in the assay with BT-549, the GI50 is 6.79 µM (inactive).

As to `Brc1ccc(C[P+]2(c3ccccc3)CCCCC2)cc1.[O-][Cl+3]([O-])([O-])[O-]`, the GI50 is > 100 µM (inactive) in the assay with DLD-1; 37.7 µM (inactive) in the assay on DMS-273; > 100 µM (inactive) in the assay with HOP-18; 61.2 µM (inactive) with KM-20L2; 25.1 µM (inactive) in the assay on LXFL 529; 25.2 µM (inactive) with SNB-78. Moreover, the GI50 in the assay with XF498 is < 0.01 µM (active).

For `CC/C=C\C/C=C\C1CC(=O)NCCCNCCCCN1` (stereo not drawn), the GI50 with DLD-1, in the assay with DMS-273, with KM-20L2, in the assay on LXFL 529 and with SNB-78 was > 100 µM (inactive) throughout.

Consider `CCCCCCCCCCCC(=O)OCCOCCOCCOCCOCCOCc1ccccc1`, for which the GI50 with DLD-1, in the assay on DMS-273, in the assay on HOP-18, with KM-20L2, in the assay on LXFL 529 and in the assay with SNB-78 was > 100 µM (inactive) throughout.

Turning to `COC(=O)CC1C=CC(C)(OC)OO1` (stereo not drawn), the GI50 in the assay on BT-549 was > 100 µM (inactive).

Take `Cc1ccc2c(c1)C(=O)/C(=N/Nc1ccc(Cl)cc1)CCO2`: the GI50 in the assay with BT-549 was > 100 µM (inactive).

Turning to `COc1c(C)c(C/C=C(\C)CCCCO)c(OC)c(OC)c1OC`, the GI50 in the assay with BT-549 was > 100 µM (inactive).

With `O=S1(=O)CCN(Cc2ccccn2)CC1`, the GI50 with BT-549 was > 100 µM (inactive).

For `CC(=O)Nc1ccc(S(=O)(=O)N/N=C(\C)CN2C(=O)c3ccccc3C2=O)cc1`, the GI50 in the assay with DLD-1, with DMS-273, in the assay on HOP-18, in the assay with KM-20L2, with LXFL 529 and with SNB-78 was > 100 µM (inactive) each time.

For the compound `O=c1cc(NNc2cccc3ccccc23)[nH]c(=O)[nH]1`, the GI50 in the assay with BT-549 was 16.4 µM (inactive).

For the compound `COC(=O)C1=C(C(=O)OC)C2(c3ccccc3)c3ccccc3C(=O)C1N2C1CCCCC1` (stereo not drawn), the GI50 in the assay with BT-549 is > 100 µM (inactive).

As to `CC1(C)OCC(COC(=O)C=[N+]=[N-])O1` (stereo not drawn), the GI50 in the assay with BT-549 is > 100 µM (inactive).

With `C=CCc1ccc(Oc2cc(CC=C)c3c(c2O)O[C@@H](CO)[C@H]3c2ccc(O)c(-c3cc(CC=C)ccc3O)c2)cc1`, the GI50 was 52.1 µM (inactive) in the assay with DLD-1; 42.9 µM (inactive) in the assay with DMS-273; > 100 µM (inactive) with HOP-18; 32.9 µM (inactive) in the assay with KM-20L2; 30.8 µM (inactive) in the assay on LXFL 529; 52 µM (inactive) in the assay on SNB-78.

Take `Cc1ccc(NC(=O)C(=O)Cc2cccc[n+]2[O-])cc1C`: the GI50 with DLD-1, with HOP-18, in the assay with KM-20L2, in the assay on LXFL 529, with SNB-78 and in the assay on XF498 was > 100 µM (inactive) throughout.

`COc1ccc(N2C(=O)CC(=O)N(NC(=O)C(C)Oc3ccccc3C)C2=S)cc1` (stereo not drawn): in the assay on BT-549, the GI50 is > 100 µM (inactive).

Consider `CCOC(=O)C1CCC(=O)N1C(=O)c1cccc(Cl)c1` (stereo not drawn), for which the GI50 in the assay on BT-549 is > 100 µM (inactive).

On to `NC(=O)CCC(NC(=O)C(F)(F)F)C(=O)O` (stereo not drawn), for which the GI50 in the assay on DLD-1, in the assay with DMS-273, in the assay with HOP-18, with KM-20L2, in the assay on LXFL 529 and in the assay with SNB-78 was > 100 µM (inactive) throughout. Also, the GI50 in the assay with XF498 is > 100 µM (inactive).

Turning to `Cc1nn(C(=O)c2ccccc2O)c2c1C(c1ccc([N+](=O)[O-])cc1)SC(=N)N2` (stereo not drawn), the GI50 in the assay on BT-549 is 7.8 µM (inactive).

As for `c1cnc2c(c1)-n1cccc1C1(CCSCC1)NN2`, the GI50 in the assay with DMS-273 was > 100 µM (inactive); with HOP-18, 26 µM (inactive); in the assay on XF498, > 100 µM (inactive).

With `N#CC1(C#N)NC(c2ccsc2)C(C#N)(C#N)NC1c1ccsc1` (stereo not drawn), the GI50 in the assay on BT-549 was > 100 µM (inactive).

For the compound `CN1C(Cl)=NS(=O)(=O)c2ccccc21`, in the assay with BT-549, the GI50 was > 100 µM (inactive).

In the case of `Cc1ccc(/C=C2\CN(C)CC3C(c4ccc(C)cc4)=C(C#N)C(=O)NC23)cc1` (stereo not drawn), the GI50 in the assay with BT-549 is > 50 µM (inactive).

In the case of `N=C(N)N/N=C/c1c(-c2ccccc2)nc2ccn3c(/C=N/N=C(N)N)c(-c4ccccc4)nc3n12`, the GI50 with BT-549 was 69 µM (inactive).
